Data on 40 molecules can be found in patent US10023575B2, “Cyclic ether derivatives of pyrazolo[1,5-a]pyrimidine-3-carboxyamide” (Boehringer Ingelheim International GmbH, priority 2015, dated 2018).

pIC50: −log10 of the molar value.

One assay has as its target PDE10 (Homo sapiens (Human), UniProt Q9Y233). The assay can be described thus: Phosphodiesterase (PDE) 10 assay with fluorescent substrate (IMAP, fluorescence polarization). The class given is biochemical. As to conditions: labeled cAMP 30 nM. On the procedure: (§1) The PDE reaction cleaves cAMP to AMP. The IMAP system (Molecular Device) using fluorescence polarization (FP) as detection principle was used to measure enzyme activity. A fluorescent labeled cAMP was used as substrate for the reaction, generating a labeled AMP. The fluorescent AMP binds specifically to the large M(III)-based nano-particles which reduces the rotational speed of the substrate and thus increases its polarization.
(§2) The inhibition of PDE 2A or 10 enzyme activity was assessed using IMAP-Phosphodiesterase-cAMP fluorescence labeled substrate (Molecular Devices, Order No. R7506), IMAP TR-FRET screening express (Molecular Devices, Order No. R8160, the TR-FRET component will not be used) and PDE 2A or PDE10 protein expressed upon baculovirus infection in SF9 cells. The cells were incubated after infection for ˜3 days and protein production was confirmed by Western Blot. The cells were collected by centrifugation and the pellet frozen in liquid nitrogen before it was resuspended in PBS containing 1% Triton X-100 and protease inhibitors. After 45 min incubation on ice, the cell debris was removed by centrifugation (13.000 rpm, 30 min).
(§3) All reactions were performed in 384 well plates, Perkin Elmer black optiplates and IMAP reaction buffer with 0.1% Tween20 (kit component)
(§4) Compounds were serial diluted in DMSO. With an intermediate dilution step with reaction buffer DMSO concentration was reduced to achieve 1% DMSO in the assay reaction. Setup of the assay started with 10 μl enzyme (˜10 ng/well, depending on prep. batch), 5 μl compound, reaction was started by addition of 5 μl labeled cAMP (30 nM, final concentration), immediately mixed for 15 seconds on a Eppendorf mixmate (2000 rpm) followed by an incubation at room temperature for 90 minutes in the dark. Reaction is stopped by adding of 60 μl binding buffer for FP/cAMP (kit component).
(§5) Each assay plate contained wells with vehicle controls (1% DMSO) for the measurement of non-inhibited reaction (=100% control) and wells without enzyme as 0% controls.
Background: Fluorescence polarisation rises when a labelled molecule tumbles more slowly, as on binding a larger partner.

Another assay has as its target PDE 2A (Homo sapiens (Human), UniProt O00408). The assay can be described thus: Phosphodiesterase (PDE) 2A assay with fluorescent substrate (IMAP, fluorescence polarization). As to conditions: labeled cAMP 30 nM, read-out: PDE2 IC50. Format: biochemical. On the procedure:
as §1, §2, §3, §4, §5

As usually defined, the pIC50 is the IC50 on a negative log10 scale, so that one unit is a factor of ten.

Sequence of PDE10 (Q9Y233 whole entry): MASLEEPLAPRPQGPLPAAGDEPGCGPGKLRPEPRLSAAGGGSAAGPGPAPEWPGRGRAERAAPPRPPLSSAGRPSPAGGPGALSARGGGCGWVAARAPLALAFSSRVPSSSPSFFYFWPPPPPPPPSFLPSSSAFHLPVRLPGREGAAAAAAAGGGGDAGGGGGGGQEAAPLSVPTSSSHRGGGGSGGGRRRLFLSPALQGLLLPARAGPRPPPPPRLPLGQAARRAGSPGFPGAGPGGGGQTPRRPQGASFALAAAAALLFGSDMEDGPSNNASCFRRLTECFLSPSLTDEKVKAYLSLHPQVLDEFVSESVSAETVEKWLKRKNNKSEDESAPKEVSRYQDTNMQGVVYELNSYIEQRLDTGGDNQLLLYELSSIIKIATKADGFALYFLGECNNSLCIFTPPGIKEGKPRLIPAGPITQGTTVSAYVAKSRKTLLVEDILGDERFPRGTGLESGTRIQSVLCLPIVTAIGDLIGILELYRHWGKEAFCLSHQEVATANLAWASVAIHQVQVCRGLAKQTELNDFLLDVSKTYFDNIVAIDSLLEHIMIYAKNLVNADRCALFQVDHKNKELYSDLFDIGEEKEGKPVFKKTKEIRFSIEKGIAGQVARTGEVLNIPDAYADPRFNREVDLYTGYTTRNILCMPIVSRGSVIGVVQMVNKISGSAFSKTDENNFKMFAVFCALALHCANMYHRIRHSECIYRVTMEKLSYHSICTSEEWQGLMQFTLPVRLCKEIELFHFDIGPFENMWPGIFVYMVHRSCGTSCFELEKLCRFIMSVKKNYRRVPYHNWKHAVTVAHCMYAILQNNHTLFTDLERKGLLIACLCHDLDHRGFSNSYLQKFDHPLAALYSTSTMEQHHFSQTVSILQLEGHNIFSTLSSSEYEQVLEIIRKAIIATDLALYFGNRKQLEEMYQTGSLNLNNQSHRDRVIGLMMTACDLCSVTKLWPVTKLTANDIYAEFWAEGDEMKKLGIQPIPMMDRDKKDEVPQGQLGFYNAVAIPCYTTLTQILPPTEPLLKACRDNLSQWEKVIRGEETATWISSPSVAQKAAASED
Sequence of PDE 2A (O00408 whole entry, species assumed): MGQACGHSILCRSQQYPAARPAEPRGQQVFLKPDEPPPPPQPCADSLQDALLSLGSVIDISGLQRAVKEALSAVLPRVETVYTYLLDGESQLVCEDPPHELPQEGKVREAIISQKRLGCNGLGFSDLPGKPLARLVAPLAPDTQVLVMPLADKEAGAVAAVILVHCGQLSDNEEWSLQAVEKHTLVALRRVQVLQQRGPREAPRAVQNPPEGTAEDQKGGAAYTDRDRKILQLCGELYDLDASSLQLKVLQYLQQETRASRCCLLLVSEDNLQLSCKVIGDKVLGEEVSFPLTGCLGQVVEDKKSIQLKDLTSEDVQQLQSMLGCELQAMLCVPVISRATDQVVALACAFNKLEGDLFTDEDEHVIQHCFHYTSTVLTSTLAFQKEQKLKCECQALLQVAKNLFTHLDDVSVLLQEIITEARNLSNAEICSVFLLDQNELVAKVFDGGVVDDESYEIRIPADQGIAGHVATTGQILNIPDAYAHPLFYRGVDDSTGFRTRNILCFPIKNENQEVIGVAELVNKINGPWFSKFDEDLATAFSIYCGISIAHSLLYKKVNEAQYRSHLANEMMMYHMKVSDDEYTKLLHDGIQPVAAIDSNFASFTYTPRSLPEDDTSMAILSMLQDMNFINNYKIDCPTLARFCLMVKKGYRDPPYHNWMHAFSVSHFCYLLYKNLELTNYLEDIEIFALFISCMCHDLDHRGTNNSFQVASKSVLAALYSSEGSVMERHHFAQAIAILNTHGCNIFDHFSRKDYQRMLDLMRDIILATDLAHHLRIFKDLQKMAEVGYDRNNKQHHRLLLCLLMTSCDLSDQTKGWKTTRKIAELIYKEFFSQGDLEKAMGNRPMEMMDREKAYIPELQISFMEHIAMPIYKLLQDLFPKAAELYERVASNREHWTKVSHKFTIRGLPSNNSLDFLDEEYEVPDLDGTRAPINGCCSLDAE

For `O=C(NC1(c2ccc(C(F)(F)F)cc2)CCCOC1)c1cnn2cc(C3CC3)cnc12` (racemic) [Example 32], the values for the pIC50 against PDE10 and at PDE 2A were under 5.00 and 7.17, respectively. For `O=C(NC1(c2ccc(OC(F)(F)F)cc2)CCCOC1)c1cnn2cc(C3CC3)cnc12` (racemic) [Example 33], the pIC50 against PDE10 is under 5.00; at PDE 2A, 7.08. On to `O=C(NC1(c2ccc(C(F)(F)F)cc2F)CCOC1)c1cnn2cc(C3CC3)cnc12` (racemic) [Example 34], for which the pIC50 at PDE10 is 4.97; at PDE 2A, 7.57.

Turning to `Cc1cnc2c(C(=O)NC3(c4ccc(C(F)(F)F)cc4)CCOC3)cnn2c1` (racemic) [Example 36], the pIC50 on PDE10 was under 5.00. With `O=C(NC1(c2ccc(Cl)cc2F)CCOC1)c1cnn2cc(C3CC3)cnc12` (racemic) [Example 38], the results for the pIC50 against PDE10 and at PDE 2A were 5.17 and 6.48, respectively. For `Cc1cnc2c(C(=O)NC3(c4ccc(Cl)cc4F)CCOC3)cnn2c1` (racemic) [Example 39], the pIC50 on PDE10 is under 5.00; on PDE 2A, 6.25.

In the case of `Cc1nn2cc(C3CC3)cnc2c1C(=O)NC1(c2ccc(C(F)(F)F)nc2)CCOC1` (racemic) [Example 42], the pIC50 on PDE10 is 5.25; on PDE 2A, 6.89. As to `Cc1cnc2c(C(=O)NC3(c4ccc(C(F)(F)F)cn4)CCOC3)c(C)nn2c1` (racemic) [Example 44], the pIC50 at PDE 2A was 6.08.

As for `Cc1cnc2c(C(=O)NC3(c4ccc(C(F)(F)F)cc4F)CCOCC3O)cnn2c1` (racemic) [Example 47], at PDE10, the pIC50 was under 5.00. As to `O=C(N[C@]1(c2ccc(C(F)(F)F)cc2F)CCOC[C@H]1O)c1cnn2cc(C3CC3)cnc12` (racemic) [Example 48], the pIC50 against PDE10 is 5.18; on PDE 2A, 8.87. With `O=C(N[C@]1(c2ccc(C(F)(F)F)cc2F)CCOC[C@@H]1O)c1cnn2cc(C3CC3)cnc12` (racemic) [Example 49], the pIC50 at PDE10 is under 5.00; on PDE 2A, 7.15. The matching figures for `Cc1cnc2c(C(=O)NC3(c4ccc(C(F)(F)F)nc4)CCOCC3O)cnn2c1` (racemic) [Example 50]: under 5.00 and 6.22. Turning to `O=C(NC1(c2ccc(C(F)(F)F)nc2)CCOCC1O)c1cnn2cc(C3CC3)cnc12` (racemic) [Example 52], the pIC50 is under 5.00 at PDE10 and 6.64 at PDE 2A. Take `Cc1cnc2c(C(=O)NC3(c4ncc(C(F)(F)F)cc4F)CCOCC3O)cnn2c1` (racemic) [Example 56]: the pIC50 against PDE10 is under 5.00; at PDE 2A, 6.64. The matching figures for `O=C(NC1(c2ncc(C(F)(F)F)cc2F)CCOCC1O)c1cnn2cc(C3CC3)cnc12` (racemic) [Example 57]: under 5.00 and 6.99.

Regarding `Cc1cnc2c(C(=O)NC3(c4ccc(C(F)(F)F)cc4)CCOCC3O)cnn2c1` (racemic) [Example 59], the pIC50 is under 5.00 at PDE10 and 7.22 at PDE 2A. In the case of `Cc1nn2cc(C3CC3)cnc2c1C(=O)NC1(c2ncc(C(F)(F)F)cc2F)CCOCC1O` (racemic) [Example 61], the values for the pIC50 against PDE10 and on PDE 2A were 5.18 and 7.72, respectively. With `Cc1nn2cc(C3CC3)cnc2c1C(=O)NC1(c2ncc(C(F)(F)F)cc2F)CCOCC1(C)O` (racemic) [Example 62], the pIC50 on PDE 2A was 6.90. Consider `O=C(NC1(c2ccc(C(F)(F)F)cn2)CCOCC1O)c1cnn2cc(C3CC3)cnc12` (racemic) [Example 63], for which the negative logarithm of the IC50 (pIC50) against PDE10 was under 5.00; on PDE 2A it was 6.91. As for `Cc1cnc2c(C(=O)NC3(c4ccc(C(F)(F)F)cn4)CCOCC3O)cnn2c1` (racemic) [Example 64], the pIC50 at PDE10 is under 5.00; at PDE 2A, 6.30. For the molecule `Cc1nn2cc(C3CC3)cnc2c1C(=O)NC1(c2ccc(C(F)(F)F)cn2)CCOCC1O` (racemic) [Example 65], the pIC50 is 5.01 at PDE10 and 7.52 on PDE 2A. At PDE10, `Cc1cnc2c(C(=O)NC3(c4ccc(C(F)(F)F)cc4F)COCC3O)cnn2c1` (single isomer, unassigned) [Example 72] gave a pIC50 of under 5.00. Molecule `Cc1cnc2c(C(=O)NC3(c4ccc(C(F)(F)F)cc4F)COCC3O)cnn2c1` (single isomer, unassigned) [Example 73] gave a pIC50 at PDE10 of under 5.00. Molecule `Cc1cnc2c(C(=O)NC3(c4ccc(C(F)(F)F)cc4F)COCC3O)cnn2c1` (single isomer, unassigned) [Example 74] had a pIC50 against PDE10 of under 5.00. As to `Cc1cnc2c(C(=O)NC3(c4ccc(C(F)(F)F)cc4F)COCC3O)cnn2c1` (single isomer, unassigned) [Example 75], at PDE10, the pIC50 was under 5.00. Take `O=C(NC1(c2ccc(C(F)(F)F)cc2F)CCOCC1O)c1cnn2cc(C3CC3)cnc12` (single isomer, unassigned) [Example 82b]: the results for the pIC50 against PDE10 and on PDE 2A were 5.07 and 7.40, respectively.

Take `Cc1cnc2c(C(=O)NC3(c4ccc(C(F)(F)F)nc4)CCOCC3O)cnn2c1` (single isomer, unassigned) [Example 87a]: the pIC50 against PDE10 is under 5.00; at PDE 2A, 6.00.

For `Cc1cnc2c(C(=O)NC3(c4ccc(C(F)(F)F)nc4)CCOCC3O)cnn2c1` (single isomer, unassigned) [Example 87b], on PDE 2A, the pIC50 was 6.74. As to `O=C(NC1(c2ccc(C(F)(F)F)nc2)CCOCC1O)c1cnn2cc(C3CC3)cnc12` (single isomer, unassigned) [Example 89a], the pIC50 on PDE10 was under 5.00; on PDE 2A, 6.00.

On to `Cc1nn2cc(C3CC3)cnc2c1C(=O)NC1(c2ncc(C(F)(F)F)cc2F)CCOCC1O` (single isomer, unassigned) [Example 90a], for which the pIC50 on PDE10 was 5.07; at PDE 2A, 6.70. The matching figures for `Cc1nn2cc(C3CC3)cnc2c1C(=O)NC1(c2ncc(C(F)(F)F)cc2F)CCOCC1O` (single isomer, unassigned) [Example 90b]: 5.13 and 7.85. In the case of `Cc1cnc2c(C(=O)NC3(c4ccc(C(F)(F)F)cc4F)COCC3(C)O)cnn2c1` (single isomer, unassigned) [Example 92a], the pIC50 against PDE10 is under 5.00. Consider `Cc1cnc2c(C(=O)NC3(c4ccc(C(F)(F)F)cc4F)COCC3(C)O)cnn2c1` (single isomer, unassigned) [Example 92b], for which, at PDE10, the pIC50 was under 5.00. In turn, `Cc1cnc2c(C(=O)NC3(c4ccc(C(F)(F)F)cc4F)COCC3(C)O)cnn2c1` (single isomer, unassigned) [Example 93a] showed a pIC50 on PDE10 of under 5.00. On to `Cc1cnc2c(C(=O)NC3(c4ccc(C(F)(F)F)cc4F)COCC3(C)O)cnn2c1` (single isomer, unassigned) [Example 93b], for which the pIC50 on PDE10 was under 5.00.

Take `Cc1cnc2c(C(=O)NC3(c4ccc(Cl)cc4F)CCOCC3)c(C)nn2c1` [Example 4]: the pIC50 was 6.26 at PDE10 and 7.32 on PDE 2A. The matching figures for `Cc1cnc2c(C(=O)NC3(c4ccc(Cl)cc4F)CCOCC3)cnn2c1` [Example 5]: 4.91 and 6.59.

As to `O=C(NC1(c2ccc(F)cc2Cl)CCOCC1)c1cnn2cc(C3CC3)cnc12` [Example 6], the pIC50 against PDE10 was under 5.00; on PDE 2A, 6.70.

Turning to `O=C(NC1(c2ccc(Cl)cc2F)CCOCC1)c1cnn2cc(C3CC3)cnc12` [Example 7], the negative-log IC50 (pIC50) at PDE10 was 5.04; on PDE 2A, 7.11.

Turning to `Cc1cnc2c(C(=O)NC3(c4ccc(C(F)(F)F)cc4F)COCC3(C)O)cnn2c1` (stereo not drawn) [Example 58], the pIC50 against PDE10 was under 5.00.
